Key:
Assay type in all cases: cell-based, rat
[1] = test system: INS-1 cells; assay: MTT cell viability assay, INS-1 cells treated with Tm; settings: Tm 0.1 μg/mL, 72 h, FIG. 2B
Description: The measurement of intracellular ATP level was use as a surrogate assay for cell viability. […] To confirm the authenticity of 13d's protective effect on β-cell viability (not simply an increase in ATP-specific measurement), we used the MTT assay, which measures the activity of NAD(P)H-dependent cellular oxidoreductase enzymes, as an orthogonal method to measure cell viability. […] To determine whether the protective effect of 13d on β-cells is specific to INS-1 cells, another β-cell line, βTC6, was used. […] In addition, compound 13d on its own had no effect on β-cell viability in both cell lines (FIG. 2C-D).
INS-1 cells or βTC6 cells were seeded at 3×10^3 cells/well in a 384-well plate and treated with compounds at the indicated concentrations. After 3 d treatment, the medium was aspirated and 10 μl of MTT reagent (Cayman Chemical, MI, USA, prepared according to manufacturer's instruction) to each well was added and mixed gently for one minute on an orbital shaker. The cells were then incubated for three hours at 37° C. in a CO2 incubator. After incubation, add 100 μl of crystal dissolving solution to each well, and incubate for 4 hours in a 37° C. CO2 incubator. Viability will be measured for the absorbance to each sample at 570 nm using EnVision multilabel plate reader (PerkinElmer, MA, USA).

[2] = test system: INS-1 cells; assay: TUNEL staining of Tm-treated INS-1 cells; settings: co-treatment with Tm, 24 h
Experimental: (A) INS-1 cells were treated with or without Tm (0.1 m/mL) in the presence of 13d at indicated concentrations or DMSO for 24 h. Cleaved caspase-3 and PARP were determined by Western blotting. α-Tubulin was used as a loading control. The data shown are representative of 3 independent experiments. (B) INS-1 cells were treated with or without Tm (0.1 m/mL) in the presence of 13d (0.111M) or DMSO for 48 h, and live-cell phase-contrast images were acquired (magnification 10×). The images shown are representative of 3 independent experiments. (C) TUNEL staining of INS-1 cells. INS-1 cells were treated with 0.111 g/mL of Tm with or without compound 13d for 24 h before TUNEL staining. DAPI was used as a nuclear marker. Magnification is 20×. The images shown are representative of 3 independent experiments. (D) Quantification of TUNEL staining from 20 fields of images. ** P<0.01 compared with Tm treatment alone.
To determine whether the increase in β-cell viability following treatment with 13d is caused by a suppression of apoptotic cell death, several apoptosis-related makers were measured. First, levels of cleaved caspase-3 and cleaved PARP were assayed by Western blotting. […]

[3] = test system: INS1 mRNA; assay: qRT-PCR of INS1 mRNA in Tm-treated INS-1 cells; settings: Tm co-treatment, 24 h
Experimental: (A-D) INS-1 cells were treated with or without Tm (0.1 m/mL) in the presence of 13d at indicated concentrations or DMSO for 24 h. The mRNA levels of INS1 (A), INS2 (B), PDX1 (C), and MafA (D), were analyzed by qRT-PCR. Relative mRNA levels were normalized against the housekeeping gene Cyclophilin A using the comparative CT method. The results are the means of 3 replicate wells and are representative of 3 independent experiments. * P<0.05 and ** P<0.01 compared with Tm treatment alone. Bars indicate SD. (E) Insulin secretion by INS-1 cells incubated with 1.7 mM and 20 mM glucose in the presence or absence of Tm (0.1 μg/mL) and 13d. Secreted insulin was measured by ELISA after 24 h treatment. * P<0.05. The amount of insulin secreted in response to 1.7 mM glucose in the absence of Tm was set to 1.0 and was normalized with total protein concentration.
(§1) INS-1 cells were seeded at 4×10^5 cells/well in 6-well plates and treated with compounds for the indicated times. […] Relative mRNA levels were normalized against the housekeeping gene Cyclophilin A and were determined by ΔΔCt calculated from the difference in ΔCt values between the target gene and Cyclophilin A with and without treatment, based on comparative CT (cycle threshold) method. […]

[4] = test system: XBP1s mRNA; assay: XBP1s mRNA (qRT-PCR and RT-PCR with gel electrophoresis) in Tm-treated INS-1 cells; settings: Tm 0.1 μg/mL co-treatment, 8 h
Experimental: INS-1 cells were treated with or without Tm (0.1 μg/mL) in the presence of 13d or DMSO for 8 h. (A) XBP1s mRNA levels were analyzed by qRT-PCR. Relative mRNA levels were normalized against the housekeeping gene Cyclophilin A using the comparative CT method. ** P<0.01 compared with Tm treatment alone. Bars indicate SD. (B) XBP1 mRNA levels were analyzed by RT-PCR and the products were resolved by agarose gel electrophoresis. The full-length (unspliced, XBP1u) and spliced (XBP1s) forms of XBP1 mRNA are indicated. Cyclophilin A mRNA was used as a loading control. Quantification was analyzed by ImageJ program shown at the bottom. The data shown are representative of 3 independent experiments.
Next, we determined the effect of 13d on the activation of IRE1α in β-cells under ER stress. […] We therefore used XBP1 splicing as a marker for the activation of the IRE1α pathway and determined the effect of 13d on IRE1α-mediated XBP1 splicing in INS-1 cells in the presence of Tm.
as §1

SMILES: O=C(NCc1ccc(C(F)(F)F)cc1)c1cccc(CN2CCCCC2)c1 [Compound 13d, N-(4-trifluoromethylphenmethyl)-3-(N-piperidinyl)methyl benzamide]
- viability of INS-1 cells under Tm treatment (MTT) [1]: restored the viability of INS-1 cells
- TUNEL-positive cells [2]: 0.5%
- Tm-suppressed INS1 mRNA level [3]: completely rescued
- Tm-induced increase in XBP1s mRNA level (qRT-PCR) [4]: abolished
- Tm-induced generation of XBP1s mRNA (RT-PCR, electrophoretic separation) ([4]; FIG. 6B): inhibits

— patent US11203582B2, “Benzamide derivatives for inhibiting endoplasmic reticulum (ER) stress” (The Board of Regents of the University of Oklahoma, priority 2017, dated 2021)
